Experiments:
HIV-1, IIIB strain = experiment: Inhibition of HIV-1-induced cytopathicity in acutely infected MT-4 cells (MTT method); type: cell-based; settings: Human immunodeficiency virus 1, IIIB, MT4, 96 h, 4-day incubation, read-out: 50% effective concentration value (EC50)
Description: Several of the compounds disclosed herein were tested for their ability to inhibit HIV cell multiplication. The compounds were solubilized in dimethyl sulfoxide at 200 mM and then diluted into culture medium. MT-4, C8166, H9/IIIB cells were grown at 37° C. in a 5% CO2 atmosphere in RPMI 1640 medium, supplemented with 10% fetal calf serum (FCS), 100 IU/mL penicillin G and 100 μg/mL streptomycin. Cell cultures were checked periodically for the absence of mycoplasma contamination with a MycoTect Kit (Gibco). Human immunodeficiency viruses type-1 (HIV-1, IIIB strain) were obtained from supernatants of persistently infected H9/IIIB. HIV-1 stock solutions had titres of 4.5×10^6 50% cell culture infectious dose (CCID50)/mL. Titration of HIV-1 was performed in C8166 cells by the standard limiting dilution method (dilution 1:2, four replica wells/dilution) in 96-well plates. The infectious virus titer was determined by light microscope scoring of cytopathicity after 4 days of incubation and the virus titers were expressed as CCID50/mL.
Activity of the compounds against HIV-1 multiplication in acutely infected cells was based on the inhibition of virus-induced cytopathicity in MT-4 cells. Briefly, 50 μL of culture medium containing 1×10^4 cells were added to each well of flat-bottom microtiter trays containing 50 μL of culture medium with or without various concentrations of the test compounds. Then 20 μL of an HIV-1 suspension containing 100 CCID50 was added. After a 4-day incubation at 37° C., the number of viable cells was determined by the 3-(4,5-dimethylthiazol-[…])-2,5-diphenyltetrazolium bromide (MTT) method (Pauwels, R.; Balzarini, J.; Baba, M.; Snoeck, R.; Schols, D.; Herdewijn, P.; Desmyster, J.; De Clercq, E. J. Virol. Methods 1988, 20, 309-321). Cytotoxicity of the compounds was evaluated in parallel with their antiviral activity, and was based on the viability of mock-infected cells, as monitored by the MTT method.

CCOC(=O)C(=O)CC(=O)c1cn(Cc2ccc(F)cc2)c2ccccc2c1=O [RDS1624, 4-[1-(4-fluorophenyl)methyl-1,4-dihydro-4-oxoquinolin-3-yl]-2,4-dioxobutanoic acid ethyl ester]
EC50 (HIV-1, IIIB strain): 3.5 µM

O=C(O)C(=O)CC(=O)c1cn(Cc2ccc(F)cc2)c2ccccc2c1=O [RDS1625, 4-[1-(4-fluorophenyl)methyl-1,4-dihydro-4-oxoquinolin-3-yl]-2,4-dioxobutanoic acid]
EC50 (HIV-1, IIIB strain): 40 µM
melting point: 207 to 209 °C

CCOC(=O)C(=O)CC(=O)c1cn(Cc2ccc(F)cc2)c2ccc(Cl)cc2c1=O [RDS1755]
EC50 (HIV-1, IIIB strain): 5 µM

Reference: US7776883B2, “Quinolin-4-ones as inhibitors of retroviral integrase for the treatment of HIV, AIDS and AIDS related complex (ARC)” (The United States of America as represented by the …, priority 2004, dated 2010)
